Results taken from article PMC5796108, “Effects of Acanthopanax senticosus on Brain Injury Induced by Simulated Spatial Radiation in Mouse Model Based on Pharmacokinetics and Comparative Proteomics” (International Journal of Molecular Sciences, 2018).
Where two headings read alike, the source gives them in different places.

Assay: Pharmacokinetics of syringin and eleutheroside E in mice's serum after oral AS extract (HPLC, PKsolver)
Type: in vivo, Kun-Ming mice
Details: oral AS extract 235.7 mg/kg; for MRT inf: read-out: MRT(0→∞)
Procedure: The radiation lasted 30 min. […] The serum was preserved at −20 °C standby.
The content of syringin and eleutheroside E in the samples for each time points was detected by HPLC. An Agilent 1100 series liquid chromatograph (Agilent Technologies, Santa Clara, CA, USA), equipped with a quaternary gradient pump and a UV detector was used. A HPLC method was developed using a reversed-phase C18 column (Agilent-TC, 250 mm × 4.6 mm, 5 μm i.d.) with the column temperature at 30 °C. […] The retention times are 6.041 min and 8.500 min for Syringin and eleutheroside E respectively. Contents of syringin and eleutheroside E were expressed in each case as nanograms of syringin and eleutheroside E per milliliter of mice serum.

[1] = Radiation-AS-Treatment (60Co-γ, 4 Gy)
[2] = male, Kun-Ming, mouse, po, 235.7 mg/kg, Normal-AS-Treatment
[3] = male, Kun-Ming, mouse, po, 235.7 mg/kg, Radiation-AS-Treatment (60Co-γ, 4 Gy)

COc1cc(/C=C/CO)cc(OC)c1O[C@@H]1O[C@H](CO)[C@@H](O)[C@H](O)[C@H]1O [Syringin]
CL (Normal-AS-Treatment): 2.91 × 10^0 ± 5.65 × 10^−1 L⋅h^−1⋅g^−1 | Vd (Normal-AS-Treatment): 2.72 × 10^1 ± 8.73 × 10^−1 L⋅g^−1 | CL [1]: 1.54 × 10^0 ± 1.86 × 10^−1 L⋅h^−1⋅g^−1 | Tmax [1]: 0.5 ± 0.237 h | Vd [1]: 2.17 × 10^1 ± 9.19 × 10^−1 L⋅g^−1 | Tmax (male, Kun-Ming, mouse, Normal-AS-Treatment, read-out: Tmax): 0.5 h | AUC(0-inf) [2]: 283 ng·h/mL | half-life [2]: 6.47 h | Cmax (male, Kun-Ming, mouse, po, 235.7 mg/kg, Normal-AS-Treatment, read-out: Cmax): 170 ng/mL | MRT inf [2]: 4.58 h | AUC(0-inf) [3]: 534 ng·h/mL | half-life [3]: 9.72 h | Cmax (male, Kun-Ming, mouse, po, 235.7 mg/kg, Radiation-AS-Treatment (60Co-γ, 4 Gy), read-out: Cmax): 212 ng/mL | MRT inf [3]: 5.95 h

COc1cc([C@H]2OC[C@@H]3[C@@H]2CO[C@H]3c2cc(OC)c(O[C@@H]3O[C@H](CO)[C@@H](O)[C@H](O)[C@H]3O)c(OC)c2)cc(OC)c1O[C@@H]1O[C@H](CO)[C@@H](O)[C@H](O)[C@H]1O [Eleutheroside E]
AUC(0→∞) (Normal-AS-Treatment): 9.93 × 10^3 ± 1.81 × 10^3 ng⋅h⋅mL^−1 | CL (Normal-AS-Treatment): 8.30 × 10^−2 ± 7.32 × 10^−3 L⋅h^−1⋅g^−1 | Cmax (Normal-AS-Treatment): 2.07 × 10^3 ± 6.61 × 10^2 ng⋅mL^−1 | MRT(0→∞) (Normal-AS-Treatment): 14.8 ± 0.597 h | Tmax (Normal-AS-Treatment): 0.5 ± 0.192 h | t1/2 (Normal-AS-Treatment): 17.2 ± 0.722 h | AUC(0→∞) [1]: 1.20 × 10^4 ± 3.63 × 10^3 ng⋅h⋅mL^−1 | CL [1]: 6.89 × 10^−2 ± 7.17 × 10^−3 L⋅h^−1⋅g^−1 | Cmax [1]: 2.11 × 10^3 ± 5.93 × 10^2 ng⋅mL^−1 | MRT(0→∞) [1]: 21.1 ± 0.701 h | Tmax [1]: 0.5 ± 0.321 h | t1/2 [1]: 2.51 × 10^1 ± 5.56 × 10^0 h
